ChEMBL document CHEMBL4000195, “Design and synthesis of novel 7-aminosubstituted pyrido[2,3-b]pyrazines exhibiting anti-breast cancer activity” (Eur J Med Chem, 2017)
Calls of active or inactive are those of the source. No cut-off for these calls is given here.

What was measured:
T47D = test: Cytotoxicity against human T47D cells at 10 uM by MTT assay; format: functional
MDA-MB-231 = test: Cytotoxicity against human MDA-MB-231 cells at 10 uM by MTT assay; format: functional
HCC1954 [1] = test: Cytotoxicity against human HCC1954 cells at 5 uM by MTT assay; format: functional
HCC1954 [2] = test: Cytotoxicity against human HCC1954 cells by MTT assay; format: functional, cell-based
SK-BR-3 = test: Cytotoxicity against human SKBR3 cells by MTT assay; format: functional, cell-based
[3] = molecular target: Dual specificity tyrosine-phosphorylation-regulated kinase 1A (Rattus norvegicus) (UniProt Q63470); test: Inhibition of rat DYRK1A using myelin basic protein as substrate in presence of [gamma33P]ATP after 30 mins by scintillation counting method
Sus scrofa = species on record: Sus scrofa; test: Inhibition of pig CK1delta/epsilon
[4] = molecular target: Aurora kinase B/Inner centromere protein (Homo sapiens) (UniProt Q96GD4+Q9NQS7); test: Inhibition of human AURKB/INCENP; format: protein-complex assay
[5] = molecular target: Vascular endothelial growth factor receptor 2 (Homo sapiens) (UniProt P35968); test: Inhibition of recombinant human GST-tagged VEGFR-2 (789-end residues) transphosphorylation activity expressed in baculovirus infected Sf9 cells using poly[Glu:Tyr] (4:1) as substrate after 60 mins
[6] = molecular target: Phosphatidylinositol 4,5-bisphosphate 3-kinase catalytic subunit alpha isoform (Homo sapiens, UniProt P42336); test: Inhibition of PI3Kalpha catalytic domain (unknown origin) at 10 uM using PIP2 liposomes as substrate in presence of biotin-labeled PIP3 and GST-GRP1-PH by streptavidin-HRP based assays
[7] = Cmax in NOD/SCID mouse at 0.5 mg/kg, ip administered as single dose by LC-MS/MS method; format: ADME, organism-based; set-up: dose 0.5 mg/kg, route intraperitoneal; conditions: in vivo
[8] = Tmax in NOD/SCID mouse at 0.5 mg/kg, po administered as single dose by LC-MS/MS method; format: ADME, organism-based; conditions: in vivo
[9] = AUC (0 to 8 hrs) in NOD/SCID mouse at 0.5 mg/kg, ip administered as single dose by LC-MS/MS method; format: ADME, organism-based; set-up: dose 0.5 mg/kg, time < 8 hr, route intraperitoneal; conditions: in vivo
Mus musculus [10] = test: Toxicity in NOD/SCID mouse assessed as phenotypic changes at 0.5 mg/kg, ip administered as single dose; format: organism-based; conditions: in vivo
[11] = Tmax in NOD/SCID mouse at 10 mg/kg, ip administered as single dose by LC-MS/MS method; format: ADME, organism-based; conditions: in vivo
[12] = Tmax in NOD/SCID mouse at 40 mg/kg, ip administered as single dose by LC-MS/MS method; format: ADME, organism-based; conditions: in vivo
[13] = AUC (0 to 8 hrs) in NOD/SCID mouse at 40 mg/kg, ip administered as single dose by LC-MS/MS method; format: ADME, organism-based; set-up: time < 8 hr, dose 40 mg/kg, route intraperitoneal; conditions: in vivo
[14] = Cmax in NOD/SCID mouse at 10 mg/kg, ip administered twice by LC-MS/MS method; format: ADME, organism-based; set-up: dose 10 mg/kg, route intraperitoneal; conditions: in vivo
[15] = Tmax in NOD/SCID mouse at 10 mg/kg, ip administered twice by LC-MS/MS method; format: ADME, organism-based; conditions: in vivo
HCC1954 [16] = test: Anti-tumor activity against HER2-amplified human HCC1954 cells xenografted in NOD/SCID mouse assessed as tumor weight at 10 mg/kg, ip administered once daily for 18 days measured after 1 hr last dose (reference value: 0.8 +/- 0.07 g); format: functional
Mus musculus [17] = test: In vivo inhibition of SRC phosphorylation in NOD/SCID mouse tumor xenografted with HER2-amplified human HCC1954 cells at 10 mg/kg, ip administered once daily for 18 days measured after 1 hr last dose; format: functional, organism-based
Mus musculus [18] = test: In vivo inhibition of ERK1/2 phosphorylation at Thr202/Tyr204 residue in NOD/SCID mouse tumor xenografted with HER2-amplified human HCC1954 cells at 10 mg/kg, ip administered once daily for 18 days measured after 1 hr last dose by […]; format: functional, organism-based
HCC1954 [19] = test: Anti-tumor activity against HER2-amplified human HCC1954 cells xenografted in NOD/SCID mouse assessed as proliferation index at 10 mg/kg, ip administered once daily for 18 days measured after 1 hr last dose by Ki-67/hematoxylin and eosin staining based microscopic analysis (reference value: 78.4 +/- 14.8%); format: functional
[20] = molecular target: Tyrosine-protein kinase BTK (Homo sapiens) (UniProt Q06187); test: Inhibition of human wild type full length BTK (M1 to S659 residues) expressed in mammalian expression system at 10 uM by KinomeScan method relative to control
Tyrosine-protein kinase BTK (Homo sapiens), sequence (Q06187 whole entry, the tested form may be a part): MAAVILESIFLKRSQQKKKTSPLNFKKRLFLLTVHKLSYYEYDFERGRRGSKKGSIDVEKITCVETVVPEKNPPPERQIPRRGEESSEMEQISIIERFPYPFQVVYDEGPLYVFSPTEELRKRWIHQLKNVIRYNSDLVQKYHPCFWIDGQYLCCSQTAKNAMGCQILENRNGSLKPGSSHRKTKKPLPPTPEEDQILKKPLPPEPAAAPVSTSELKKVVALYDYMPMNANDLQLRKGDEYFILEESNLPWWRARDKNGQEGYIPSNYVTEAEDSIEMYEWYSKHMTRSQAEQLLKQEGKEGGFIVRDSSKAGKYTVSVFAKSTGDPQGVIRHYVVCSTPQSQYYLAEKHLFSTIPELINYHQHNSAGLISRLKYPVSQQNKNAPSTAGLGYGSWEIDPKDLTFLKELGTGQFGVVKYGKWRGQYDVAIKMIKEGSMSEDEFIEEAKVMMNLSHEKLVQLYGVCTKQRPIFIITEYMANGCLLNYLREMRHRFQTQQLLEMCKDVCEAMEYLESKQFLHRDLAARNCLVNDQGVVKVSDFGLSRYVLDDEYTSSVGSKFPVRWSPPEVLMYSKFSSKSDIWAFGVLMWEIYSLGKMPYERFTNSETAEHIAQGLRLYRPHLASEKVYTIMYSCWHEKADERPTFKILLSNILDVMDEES

[21] = molecular target: Ephrin type-A receptor 1 (Homo sapiens) (UniProt P21709); test: Inhibition of human wild type partial length EPHA1 (V588 to I913 residues) expressed in bacterial expression system at 10 uM by KinomeScan method relative to control
[22] = molecular target: Receptor tyrosine-protein kinase erbB-2 (Homo sapiens) (UniProt P04626); test: Inhibition of human wild type partial length ERBB2 (K646 to V1225 residues) expressed in mammalian expression system at 10 uM by KinomeScan method relative to control
[23] = molecular target: Mitogen-activated protein kinase 3 (Homo sapiens) (UniProt P27361); test: Inhibition of human wild type full length ERK1 (M1 to P379 residues) expressed in bacterial expression system at 10 uM by KinomeScan method relative to control
[24] = molecular target: Tyrosine-protein kinase Fyn (Homo sapiens) (UniProt P06241); test: Inhibition of human wild type partial length FYN (T243 to L534 residues) expressed in bacterial expression system at 10 uM by KinomeScan method relative to control
[25] = molecular target: Tyrosine-protein kinase HCK (Homo sapiens) (UniProt P08631); test: Inhibition of human wild type full length HCK (M22 to P526 residues) expressed in bacterial expression system at 10 uM by KinomeScan method relative to control
Tyrosine-protein kinase HCK (Homo sapiens), sequence (P08631 2-526 limits assumed): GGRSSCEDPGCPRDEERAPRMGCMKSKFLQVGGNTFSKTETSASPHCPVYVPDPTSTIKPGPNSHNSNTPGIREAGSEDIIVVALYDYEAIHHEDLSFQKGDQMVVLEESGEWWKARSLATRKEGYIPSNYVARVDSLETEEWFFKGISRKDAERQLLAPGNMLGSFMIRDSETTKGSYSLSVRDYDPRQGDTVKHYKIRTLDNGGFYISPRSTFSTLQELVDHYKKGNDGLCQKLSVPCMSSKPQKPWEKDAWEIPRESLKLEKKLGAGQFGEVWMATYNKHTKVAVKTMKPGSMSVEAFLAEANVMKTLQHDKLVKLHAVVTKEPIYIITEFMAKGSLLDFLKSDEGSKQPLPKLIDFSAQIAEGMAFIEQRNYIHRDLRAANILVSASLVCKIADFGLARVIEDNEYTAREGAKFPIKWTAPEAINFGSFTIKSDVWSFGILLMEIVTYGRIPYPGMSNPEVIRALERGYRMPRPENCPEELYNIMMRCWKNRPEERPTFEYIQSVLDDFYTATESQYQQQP

[26] = molecular target: Mitogen-activated protein kinase kinase kinase 4 (Homo sapiens) (UniProt Q9Y6R4); test: Inhibition of human wild type partial length MAP3K4 (G1319 to E1608 residues) expressed in bacterial expression system at 10 uM by KinomeScan method relative to control
Mitogen-activated protein kinase kinase kinase 4 (Homo sapiens), sequence (Q9Y6R4 whole entry, the tested form may be a part): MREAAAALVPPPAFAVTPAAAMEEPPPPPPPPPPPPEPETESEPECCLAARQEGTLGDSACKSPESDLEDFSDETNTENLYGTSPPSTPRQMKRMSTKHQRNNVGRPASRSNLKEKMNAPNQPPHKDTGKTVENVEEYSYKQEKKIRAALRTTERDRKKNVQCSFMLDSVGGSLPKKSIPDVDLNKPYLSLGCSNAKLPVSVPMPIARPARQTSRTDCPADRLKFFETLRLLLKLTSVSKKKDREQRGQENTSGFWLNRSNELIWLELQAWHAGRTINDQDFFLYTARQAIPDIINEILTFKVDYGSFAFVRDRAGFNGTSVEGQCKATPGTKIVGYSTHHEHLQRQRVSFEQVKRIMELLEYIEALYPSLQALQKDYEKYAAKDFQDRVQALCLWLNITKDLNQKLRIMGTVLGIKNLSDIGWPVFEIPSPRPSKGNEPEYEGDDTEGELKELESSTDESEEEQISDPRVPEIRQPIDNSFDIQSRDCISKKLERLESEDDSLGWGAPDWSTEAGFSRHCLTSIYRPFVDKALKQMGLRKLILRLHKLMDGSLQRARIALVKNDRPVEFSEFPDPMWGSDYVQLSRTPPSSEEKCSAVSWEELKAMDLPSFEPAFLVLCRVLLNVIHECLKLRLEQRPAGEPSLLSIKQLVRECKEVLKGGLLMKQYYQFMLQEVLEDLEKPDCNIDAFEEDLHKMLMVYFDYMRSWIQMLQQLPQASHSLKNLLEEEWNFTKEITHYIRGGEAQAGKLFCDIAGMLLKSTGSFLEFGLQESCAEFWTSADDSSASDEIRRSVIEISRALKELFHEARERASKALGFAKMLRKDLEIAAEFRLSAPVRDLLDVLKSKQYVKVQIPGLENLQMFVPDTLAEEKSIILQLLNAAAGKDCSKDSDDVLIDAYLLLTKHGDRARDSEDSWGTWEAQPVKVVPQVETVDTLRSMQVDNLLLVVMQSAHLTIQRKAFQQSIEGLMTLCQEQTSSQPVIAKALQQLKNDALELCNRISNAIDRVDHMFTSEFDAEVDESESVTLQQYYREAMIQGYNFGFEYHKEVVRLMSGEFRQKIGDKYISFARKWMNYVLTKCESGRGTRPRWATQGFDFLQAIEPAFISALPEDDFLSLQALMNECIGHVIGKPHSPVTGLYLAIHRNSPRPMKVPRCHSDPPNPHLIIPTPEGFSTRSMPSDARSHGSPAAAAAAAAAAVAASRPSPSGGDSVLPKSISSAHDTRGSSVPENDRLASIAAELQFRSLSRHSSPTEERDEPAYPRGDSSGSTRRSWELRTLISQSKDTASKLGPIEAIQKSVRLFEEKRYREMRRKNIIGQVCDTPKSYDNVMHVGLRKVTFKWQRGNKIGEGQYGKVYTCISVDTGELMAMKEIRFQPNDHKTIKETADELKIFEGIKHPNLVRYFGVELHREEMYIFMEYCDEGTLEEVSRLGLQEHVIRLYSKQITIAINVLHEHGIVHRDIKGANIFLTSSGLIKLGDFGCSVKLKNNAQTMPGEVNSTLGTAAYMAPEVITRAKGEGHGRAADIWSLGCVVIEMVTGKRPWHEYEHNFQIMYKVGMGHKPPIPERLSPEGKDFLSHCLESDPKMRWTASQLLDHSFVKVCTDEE

[27] = molecular target: Hepatocyte growth factor receptor (Homo sapiens) (UniProt P08581); test: Inhibition of human wild type partial length MET (D1010 to S1367 residues) expressed in bacterial expression system at 10 uM by KinomeScan method relative to control
Hepatocyte growth factor receptor (Homo sapiens), sequence (P08581 whole entry, the tested form may be a part): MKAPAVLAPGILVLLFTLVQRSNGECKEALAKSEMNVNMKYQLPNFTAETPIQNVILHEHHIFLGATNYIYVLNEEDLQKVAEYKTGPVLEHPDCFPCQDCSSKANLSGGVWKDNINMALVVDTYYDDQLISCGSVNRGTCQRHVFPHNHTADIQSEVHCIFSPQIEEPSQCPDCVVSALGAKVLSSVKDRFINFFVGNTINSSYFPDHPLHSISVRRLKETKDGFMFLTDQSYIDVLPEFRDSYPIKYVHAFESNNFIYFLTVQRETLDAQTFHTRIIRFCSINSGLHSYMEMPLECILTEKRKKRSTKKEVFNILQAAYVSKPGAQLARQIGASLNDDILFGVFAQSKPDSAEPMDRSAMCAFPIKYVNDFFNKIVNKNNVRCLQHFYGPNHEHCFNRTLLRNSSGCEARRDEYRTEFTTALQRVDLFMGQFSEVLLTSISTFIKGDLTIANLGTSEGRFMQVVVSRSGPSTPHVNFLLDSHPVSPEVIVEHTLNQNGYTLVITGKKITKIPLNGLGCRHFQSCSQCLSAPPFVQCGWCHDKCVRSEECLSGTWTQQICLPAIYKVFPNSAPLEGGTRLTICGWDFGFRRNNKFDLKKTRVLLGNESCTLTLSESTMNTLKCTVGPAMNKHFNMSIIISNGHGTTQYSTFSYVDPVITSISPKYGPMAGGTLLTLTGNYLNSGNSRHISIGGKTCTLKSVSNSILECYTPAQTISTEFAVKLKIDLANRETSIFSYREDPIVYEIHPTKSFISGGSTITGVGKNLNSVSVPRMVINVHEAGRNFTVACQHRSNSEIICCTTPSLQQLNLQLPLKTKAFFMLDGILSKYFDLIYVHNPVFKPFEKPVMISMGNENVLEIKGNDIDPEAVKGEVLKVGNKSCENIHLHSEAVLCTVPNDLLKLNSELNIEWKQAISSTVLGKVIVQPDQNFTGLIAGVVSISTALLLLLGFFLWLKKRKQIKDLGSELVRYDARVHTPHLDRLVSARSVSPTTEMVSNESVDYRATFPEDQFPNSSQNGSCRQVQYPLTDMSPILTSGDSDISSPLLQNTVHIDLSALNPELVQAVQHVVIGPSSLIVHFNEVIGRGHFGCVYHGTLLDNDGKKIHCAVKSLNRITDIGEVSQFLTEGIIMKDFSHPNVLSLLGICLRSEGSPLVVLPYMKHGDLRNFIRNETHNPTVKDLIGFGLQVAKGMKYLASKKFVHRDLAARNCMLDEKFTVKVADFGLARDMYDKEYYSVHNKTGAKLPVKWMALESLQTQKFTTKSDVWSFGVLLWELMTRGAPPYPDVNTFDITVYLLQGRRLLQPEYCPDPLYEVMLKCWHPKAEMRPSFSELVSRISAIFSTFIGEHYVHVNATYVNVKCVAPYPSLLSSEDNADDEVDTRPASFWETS

[28] = molecular target: Muscle, skeletal receptor tyrosine-protein kinase (Homo sapiens) (UniProt O15146); test: Inhibition of human wild type partial length MUSK (M553 to V869 residues) expressed in bacterial expression system at 10 uM by KinomeScan method relative to control
Muscle, skeletal receptor tyrosine-protein kinase (Homo sapiens), sequence (O15146 whole entry, the tested form may be a part): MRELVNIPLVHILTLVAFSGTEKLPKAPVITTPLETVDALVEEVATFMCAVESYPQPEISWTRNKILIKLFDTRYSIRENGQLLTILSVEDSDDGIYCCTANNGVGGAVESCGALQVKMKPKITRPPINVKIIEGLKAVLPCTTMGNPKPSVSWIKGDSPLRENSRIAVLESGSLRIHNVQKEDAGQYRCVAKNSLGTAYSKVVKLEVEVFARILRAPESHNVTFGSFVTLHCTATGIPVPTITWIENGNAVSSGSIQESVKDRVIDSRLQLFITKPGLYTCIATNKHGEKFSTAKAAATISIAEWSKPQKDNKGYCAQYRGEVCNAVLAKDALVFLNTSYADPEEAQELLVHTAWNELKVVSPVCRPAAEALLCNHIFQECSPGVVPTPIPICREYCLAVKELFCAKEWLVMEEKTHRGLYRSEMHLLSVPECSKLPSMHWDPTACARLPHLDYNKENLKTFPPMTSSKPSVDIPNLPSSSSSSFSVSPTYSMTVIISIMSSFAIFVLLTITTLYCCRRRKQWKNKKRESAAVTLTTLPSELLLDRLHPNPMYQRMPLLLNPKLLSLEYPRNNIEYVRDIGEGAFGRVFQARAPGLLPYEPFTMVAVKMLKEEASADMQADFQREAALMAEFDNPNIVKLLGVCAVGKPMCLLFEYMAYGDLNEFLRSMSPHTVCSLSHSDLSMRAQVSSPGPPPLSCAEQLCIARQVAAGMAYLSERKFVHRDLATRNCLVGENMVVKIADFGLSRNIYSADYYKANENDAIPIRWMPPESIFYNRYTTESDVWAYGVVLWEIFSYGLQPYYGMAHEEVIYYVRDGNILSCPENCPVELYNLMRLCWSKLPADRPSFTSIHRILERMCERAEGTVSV

[29] = molecular target: Tyrosine-protein kinase SYK (Homo sapiens) (UniProt P43405); test: Inhibition of human wild type partial length SYK (D354 to N635 residues) expressed in bacterial expression system at 10 uM by KinomeScan method relative to control
[30] = molecular target: Tyrosine-protein kinase TXK (Homo sapiens) (UniProt P42681); test: Inhibition of human wild type partial length TXK (L238 to W527 residues) expressed in bacterial expression system at 10 uM by KinomeScan method relative to control

inhibition [3]: inactive
inhibition (Sus scrofa): inactive
inhibition [4]: inactive
inhibition [5]: inactive
inhibition [6]: Active
Cmax [7]: 0.82 µM
Tmax [8]: 1 h
AUC(0-t) at 8 h [9]: 2.85 µM·h
Tmax [11]: 2 h
Tmax [12]: 2 h
AUC(0-t) at 8 h [13]: 131 µM·h
Cmax [14]: 6.45 µM
Tmax [15]: 2 h
inhibition [20]: 10%
inhibition [21]: 9%
inhibition [22]: 0%
inhibition [23]: 11%
inhibition [24]: 6%
inhibition [25]: 13%
inhibition [26]: 16%
inhibition [27]: 40%
inhibition [28]: 0%
inhibition [29]: 10%
inhibition [30]: 8%
Compound: Cc1nc2nc(Sc3ccccc3)cnc2cc1NC(=O)Nc1ccccc1
Activity (T47D): >50%
Activity (MDA-MB-231): >50%
Activity (HCC1954 [1]): >50%
IC50 (HCC1954 [2]): 1500 nM
IC50 (SK-BR-3): 1800 nM
Activity (Mus musculus [10]): Non-Toxic
Activity (HCC1954 [16]): 0.2 g
inhibition (Mus musculus [17]): Active
inhibition (Mus musculus [18]): Active
Activity_index (HCC1954 [19]): 25.7%
